Results as given in patent US6737383B1, “Herbicidal oxadiazolidines” (priority 1999, dated 2004).

Tests used:
[1] = tested on: bedstraw; test: Test B pre/postemergence bedstraw; format: in vivo, Galium aparine
How it was run: (§1)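 Test chemicals in a non-phytotoxic solvent mixture with surfactant were sprayed preemergence onto planted seeds and postemergence onto plants 2 to 18 cm tall (1- to 4-leaf stage). After twelve to sixteen days in a greenhouse, injury was visually rated against untreated controls from 0 (no effect) to 10 (complete control).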

[2] = tested on: bamyardgrass; test: Test B flood test barnyardgrass; format: in vivo, Echinochloa crus-galli
How it was run: (§2)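 Flood test on plants grown to the 2-leaf stage; treated plants kept in greenhouse twelve to sixteen days, then visually rated against controls on a 0 (no effect) to 10 (complete control) scale.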

[3] = tested on: cocklebur; test: Test B pre/postemergence cocklebur; format: in vivo, Xanthium strumarium
How it was run: as §1

[4] = tested on: sugar beet; test: Test B pre/postemergence sugar beet; format: in vivo, Beta vulgaris
How it was run: as §1

[5] = tested on: morningglory; test: Test B pre/postemergence morningglory; format: in vivo, Ipomoea hederacea
How it was run: as §1

[6] = tested on: rice; test: Test B flood test rice; format: in vivo, Oryza sativa
How it was run: as §2

[7] = tested on: wheat; test: Test B pre/postemergence wheat; format: in vivo, Triticum aestivum
How it was run: as §1

[8] = tested on: rape; test: Test B pre/postemergence rape; format: in vivo, Brassica napus
How it was run: as §1

[9] = tested on: wild oat; test: Test B pre/postemergence wild oat; format: in vivo, Avena fatua
How it was run: as §1

[10] = tested on: corn; test: Test B pre/postemergence corn; format: in vivo, Zea mays
How it was run: as §1

[11] = Postemergence, Rate 500 g/ha, scale of 0 to 10 where 0 is no effect and 10 is complete control
[12] = Preemergence, Rate 62 g/ha, scale 0 to 10 (0 no effect, 10 complete control)
[13] = Preemergence, Rate 125 g/ha, scale of 0 to 10 where 0 is no effect and 10 is complete control
[14] = Rate 62 g/ha, flood test species, Pre-emergence, visual evaluation after twelve to sixteen days
[15] = Rate 125 g/ha, under heading Pre-emergence, flood test species, visual evaluation after twelve to sixteen days
[16] = Rate 250 g/ha, Pre-emergence (flood test species), scale 0 to 10, 0 is no effect, 10 is complete control
[17] = Rate 500 g/ha, Pre-emergence section of Table B, 0 to 10 scale (0 no effect, 10 complete control)
[18] = Postemergence, Rate 62 g/ha, scale 0 to 10, 0 is no effect, 10 is complete control
[19] = Postemergence, Rate 125 g/ha, scale of 0 to 10 where 0 is no effect and 10 is complete control
[20] = Postemergence, Rate 250 g/ha, scale of 0 to 10, 0 is no effect, 10 is complete control
[21] = Preemergence, Rate 500 g/ha, scale of 0 to 10 where 0 is no effect and 10 is complete control

CC(C)N(C(=O)n1oc(=O)n(CC2=NOCCC2)c1=O)c1ccc(F)cc1 [Compound 601]
4: Sugarbeets plant response rating [4, 13]
1: Plant response rating, Cocklebur [3, 11] | Plant response rating, Morningglory [5, 18] | Plant response rating, Morningglory [5, 19] | Morningglory plant response rating [5, 20] | Plant response rating, Morningglory [5, 11] | Wheat plant response rating [7, 13]
0: Bedstraw plant response rating [1, 12] | Bedstraw plant response rating [1, 13] | Bedstraw plant response rating (0 to 10 scale) ([1]; Preemergence, Rate 250 g/ha) | Plant response rating, Barnyardgrass (0 to 10 scale, 0 is no effect, 10 is complete control) [2, 14] | Barnyardgrass plant response rating (0 to 10 scale, 0 is no effect, 10 is complete control) [2, 15] | Barnyardgrass plant response rating [2, 16] | Barnyardgrass plant response rating [2, 17] | Plant response rating, Cocklebur [3, 18] | Plant response rating, Cocklebur [3, 19] | Cocklebur plant response rating [3, 20] | Cocklebur plant response rating [3, 12] | Cocklebur plant response rating [3, 13] | Cocklebur plant response rating (0 to 10 scale) ([3]; Preemergence, Rate 250 g/ha) | Plant response rating, Cocklebur [3, 21] | Plant response rating, Sugarbeets [4, 18] | Plant response rating, Sugarbeets [4, 19] | Sugarbeets plant response rating [4, 20] | Plant response rating, Sugarbeets [4, 11] | Sugarbeets plant response rating [4, 12] | Morningglory plant response rating [5, 12] | Morningglory plant response rating [5, 13] | Plant response rating, Morningglory [5, 21] | Plant response rating, Rice (0 to 10 scale, 0 is no effect, 10 is complete control) [6, 14] | Rice plant response rating (0 to 10 scale, 0 is no effect, 10 is complete control) [6, 15] | Rice plant response rating [6, 16] | Rice plant response rating [6, 17] | Plant response rating, Wheat [7, 18] | Plant response rating, Wheat [7, 19] | Wheat plant response rating [7, 20] | Wheat plant response rating [7, 12] | Plant response rating, Rape [8, 18] | Plant response rating, Rape [8, 19] | Rape plant response rating [8, 20] | Plant response rating, Rape [8, 11] | Rape plant response rating [8, 12] | Rape plant response rating [8, 13] | Plant response rating, Wild oats [9, 18] | Plant response rating, Wild oats [9, 19] | Wild oats plant response rating [9, 20] | Plant response rating, Wild oats [9, 11] | Plant response rating, Corn [10, 18] | Plant response rating, Corn [10, 19] | Corn plant response rating [10, 20] | Plant response rating, Corn [10, 11] | Corn plant response rating [10, 12] | Corn plant response rating [10, 13] | Corn plant response rating (0 to 10 scale) ([10]; Preemergence, Rate 250 g/ha)
6: Plant response rating, Wheat [7, 21]
3: Plant response rating, Wheat [7, 11] | Wild oats plant response rating [9, 12] | Plant response rating, Corn [10, 21]
8: Plant response rating, Bedstraw [1, 11] | Wild oats plant response rating [9, 13] | Plant response rating, Wild oats [9, 21]
5: Plant response rating, Sugarbeets [4, 21] | Plant response rating, Rape [8, 21]
